Experimental data as given in patent US7427623B2, “4-Amino-2,3-disubstituted thieno[2,3-d]pyrimidines and pharmacetical compositions thereof” (SmithKline Beecham Corporation, priority 2001, dated 2008).

Columns and labels:
GST-VEGFR2 = target: T1, GST-VEGFR2 (Homo sapiens, UniProt P35968); assay: VEGF-R2 Enzyme Assay (VEGF-E), LANCE method; assay type: biochemical; details: GST-VEGFR2, 75 uM ATP; for IC50: read-out: VEGF-E pIC50 (converted)
T1 construct: GST-VEGFR2, baculovirus expressed recombinant constructs of the intracellular domains of human TIE2 tagged by GST; made in house
T1 sequence (P35968 786-1356 limits assumed): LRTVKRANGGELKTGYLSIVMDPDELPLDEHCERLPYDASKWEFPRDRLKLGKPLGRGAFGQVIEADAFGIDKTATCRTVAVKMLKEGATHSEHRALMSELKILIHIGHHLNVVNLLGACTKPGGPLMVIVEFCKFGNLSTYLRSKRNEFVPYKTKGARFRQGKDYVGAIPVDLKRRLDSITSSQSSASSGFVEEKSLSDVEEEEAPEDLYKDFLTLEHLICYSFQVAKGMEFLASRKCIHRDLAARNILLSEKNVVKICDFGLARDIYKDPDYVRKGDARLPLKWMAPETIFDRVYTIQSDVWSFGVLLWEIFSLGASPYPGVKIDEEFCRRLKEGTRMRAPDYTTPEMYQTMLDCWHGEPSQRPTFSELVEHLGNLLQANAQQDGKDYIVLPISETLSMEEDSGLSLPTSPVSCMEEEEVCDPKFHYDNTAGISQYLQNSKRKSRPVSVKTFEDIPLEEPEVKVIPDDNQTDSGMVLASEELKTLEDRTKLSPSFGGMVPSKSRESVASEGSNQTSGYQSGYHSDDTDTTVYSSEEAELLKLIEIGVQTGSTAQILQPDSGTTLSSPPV
Procedure: VEGF-R2 Enzyme Assay (VEGF-E)
The VEGF enzyme assay used the LANCE method (Wallac) and GST-VEGFR2, baculovirus expressed recombinant constructs of the intracellular domains of human […] tagged by GST. […] The reaction was stopped by the addition of EDTA (final concentration 50 mM). […] The APC signal was measured using an ARVO multilabel counter (Wallac Berthold, Japan). The percent inhibition of activity was calculated relative to blank control wells. […] The IC50 values were converted to pIC50 values, i.e., −log IC50 in Molar concentration.

[1] = tested on: Human umbilical cord endothelial cells (HUVEC); assay: VEGF-Driven Cellular Proliferation Assay, BrdU Incorporation Assay (VEGF-C); assay type: cell-based; details: for IC50: Homo sapiens, read-out: VEGF-C pIC50 (converted)
Procedure: VEGF-Driven Cellular Proliferation Assay. BrdU Incorporation Assay (VEGF-C)
Human umbilical cord endothelial cells (HUVEC, Clonetics, CC2519) were passaged in Type I collagen-coated 100-mm petridishes in EGM-MV medium (Clonetics, CC3125) at 37 C in a humidified 5% CO2, 95% air incubator. […] After incubation overnight at 37° C., the media were replaced with 100 ul of M199 serum-free medium containing compounds at various concentrations with 0.6% DMSO and gentamicin. The compounds were diluted in serum-free M199 medium from 10 mM stock solutions prepared in 100% DMS0. […] The cells were pulsed with bromodeoxyuridine (BrdU at 10 uM in serum-free M199) at 37° C. for an additional 24 h. […] The optical density at 450 nm was measured with a multilabel counter (ARVO SX, Wallac). The percent inhibition of cell growth was calculated relative to blank control wells. […] The IC50 values were converted to pIC50 values, i.e., −log IC50 in Molar concentration.

[2] = target: T2, GST-TIE2 (intracellular domains of human TIE2) (Homo sapiens, UniProt Q02763); assay: TIE-2 Enzyme assay (TIE2-E), LANCE method; assay type: biochemical; details: GST-TIE2, 80 uM ATP, D1–15 peptide; for IC50: read-out: TIE2-E pIC50 (converted)
T2 construct: made in house
T2 sequence (Q02763 762-1104): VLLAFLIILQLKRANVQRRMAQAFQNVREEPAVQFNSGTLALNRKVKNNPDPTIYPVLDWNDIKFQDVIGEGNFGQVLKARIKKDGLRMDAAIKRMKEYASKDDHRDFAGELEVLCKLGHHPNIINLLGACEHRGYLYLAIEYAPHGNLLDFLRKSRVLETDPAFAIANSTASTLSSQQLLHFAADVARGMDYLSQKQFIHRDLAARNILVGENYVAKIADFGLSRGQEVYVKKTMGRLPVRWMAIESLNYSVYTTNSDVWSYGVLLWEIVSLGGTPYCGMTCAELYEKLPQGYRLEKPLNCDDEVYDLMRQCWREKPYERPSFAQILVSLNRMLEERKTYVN
Procedure: TIE-2 Enzyme assay (TIE2-E)
Preactivated GST-TIE2 was incubated for 30 mins at room temperature in 96 well plates with 1 uM D1–15 peptide, 80 uM ATP, 10 mM MgCl2, 0.1 mg/ml BSA and the test compound (diluted from a 10 mM stock in DMSO, final DMSO concentration was 2.4%) in 1 mM HEPES (pH 7.4). The reaction was stopped by the addition of EDTA (final concentration 45 mM). Streptavidin linked-APC (allophycocyanin, Molecular Probe) and Europium-labeled anti-phosphorylated tyrosine antibody (Wallac) were then added at the final concentration of 17 ug/well and 2.1 ug/well, respectively. The APC signal was measured using an ARVO multilabel counter. (Wallac Berthold Japan). The percent inhibition of activity was calculated relative to blank control wells. […] The IC50 values were converted to pIC50 values, i.e., −log IC50 in Molar concentration.

[3] = target: T3, TIE2 intracellular domain/c-fms extracellular domain (TIE2/c-fms) chimeric protein (Homo sapiens, UniProt Q02763); assay: TIE-2 Autophosphorylation Assay (TIE2-C), ELISA; assay type: cell-based; details: TIE2/c-fms expressing mouse 3T3 cells, MCSF activation; for IC50: read-out: TIE2-C pIC50 (converted)
T3 construct: TIE2 intracellular domain/c-fms extracellular domain (TIE2/c-fms) chimeric protein; expressed in transfected cells; host or cells: mouse 3T3 cells
T3 sequence (Q02763 770-1124 limits assumed, change not shown): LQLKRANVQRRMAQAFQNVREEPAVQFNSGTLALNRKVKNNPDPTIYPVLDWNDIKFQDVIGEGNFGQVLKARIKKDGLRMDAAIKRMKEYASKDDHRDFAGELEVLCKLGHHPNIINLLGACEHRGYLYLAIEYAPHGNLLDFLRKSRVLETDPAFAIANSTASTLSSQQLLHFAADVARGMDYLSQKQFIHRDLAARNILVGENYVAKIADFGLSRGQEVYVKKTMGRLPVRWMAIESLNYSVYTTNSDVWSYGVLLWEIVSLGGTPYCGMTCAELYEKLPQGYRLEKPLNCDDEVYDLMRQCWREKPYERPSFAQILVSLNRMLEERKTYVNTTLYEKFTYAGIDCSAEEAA
T3 sequence (P07333 20-517 partner limits assumed): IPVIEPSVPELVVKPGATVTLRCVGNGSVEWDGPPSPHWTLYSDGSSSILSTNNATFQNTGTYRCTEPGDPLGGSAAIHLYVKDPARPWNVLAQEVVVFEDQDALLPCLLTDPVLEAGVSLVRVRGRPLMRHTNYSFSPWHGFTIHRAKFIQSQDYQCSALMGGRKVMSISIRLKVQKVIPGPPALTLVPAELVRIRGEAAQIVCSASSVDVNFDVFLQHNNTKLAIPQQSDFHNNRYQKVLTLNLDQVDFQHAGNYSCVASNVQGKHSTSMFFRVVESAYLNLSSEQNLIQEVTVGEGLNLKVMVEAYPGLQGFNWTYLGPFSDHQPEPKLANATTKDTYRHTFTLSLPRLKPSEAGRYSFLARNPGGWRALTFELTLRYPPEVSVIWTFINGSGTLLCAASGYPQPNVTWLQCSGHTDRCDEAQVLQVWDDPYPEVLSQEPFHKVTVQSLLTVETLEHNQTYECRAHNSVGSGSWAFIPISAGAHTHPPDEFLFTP
T3 sequence (P09603 33-190 partner limits assumed): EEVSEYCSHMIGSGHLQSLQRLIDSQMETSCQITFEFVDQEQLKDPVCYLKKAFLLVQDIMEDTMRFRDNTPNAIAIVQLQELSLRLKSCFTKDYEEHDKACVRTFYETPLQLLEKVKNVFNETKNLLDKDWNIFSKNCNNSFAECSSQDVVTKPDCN
Procedure: TIE-2 Autophosphorylation Assay (TIE2-C)
The TIE-2 autophosphorylation assay used an ELISA method and a TIE2 intracellular domain/c-fms extracellular domain (TIE2/c-fms) chimeric protein expressing mouse 3T3 cells. This assay measured the autophosphorylation level of TIE2 protein expressed in cells. The cells were cultured in high glucose DMEM (Sigma) containing 10% serum at 37° C. in a humidified 10% CO2, 90% air incubator. The test compound (diluted from a 10 mM stock in DMSO, final DMSO concentration was 0.1%) was incubated with TIE2/c-fms expressing cells for 1 hr in serum free DMEM in 96 well plates followed by the activation of TIE2/c-fms receptor using c-fms ligand, MCSF (macrophage colony stimulating factor). […] The cell extracts were transferred into Rat anti-c-fms antibody coated 96 well plates and incubated for 12 hrs at 4 degrees. The extracts were removed by aspiration and the plate was incubated with biotinylated anti-phosphotyrosine antibody, PT66 (Sigma) and then with HRP (Horseradish Peroxidase)-labeled streptavidin (PIERCE). The optical density at 450 nm derived from HRP catalyzed TMB was measured with an ARVO multilabel counter. (Wallac Berthold Japan). The percent inhibition of activity was calculated relative to blank control wells. […] The IC50 values were converted to pIC50 values, i.e., −log IC50 in Molar concentration.

Molecule	VEGF-E pIC50 (GST-VEGFR2)	TIE2-E pIC50 [2]	TIE2-C pIC50 [3]	IC50 (GST-VEGFR2) [nM]	IC50 [2] [nM]	IC50 [3] [nM]	VEGF-C pIC50 [1]	IC50 [1] [nM]
4-Amino-2-(4-amino-3-(N-methylcarbamoyl)phenyl)-3-(4-methoxyphenyl)furo[2,3-d]pyrimidine [Example 147]	++ (++ = pIC50 of 6.0–7.0)	+ (+ = pIC50 of 5.0–6.0)	++ (++ = pIC50 of 6.0–7.0)	–	–	–	+ (+ = pIC50 of 5.0–6.0)	–
4-Amino-2-(4-fluoro-3-(methylsulfonylamino)phenyl)-3-(4-methoxyphenyl)furo[2,3-d]pyrimidine [Example 178]	++ (++ = pIC50 of 6.0–7.0)	+ (+ = pIC50 of 5.0–6.0)	++ (++ = pIC50 of 6.0–7.0)	–	–	–	+ (+ = pIC50 of 5.0–6.0)	–
4-Amino-2-(5-indolyl)-3-(4-(3-pyridyl)phenyl)furo[2,3-d]pyrimidine [Example 153]	–	++ (++ = pIC50 of 6.0–7.0)	++ (++ = pIC50 of 6.0–7.0)	–	–	–	+ (+ = pIC50 of 5.0–6.0)	–
4-Amino-3-(4-(2-pyridyl)phenyl)-2-(3-sulfamoylphenyl)furo[2,3-d]pyrimidine [Example 206]	+++ (+++ = pIC50 of >7.0)	++ (++ = pIC50 of 6.0–7.0)	++ (++ = pIC50 of 6.0–7.0)	–	–	–	+ (+ = pIC50 of 5.0–6.0)	–
4-Amino-3-(4-(4-tert-butylphenyl)phenyl)-2-(3-sulfamoylphenyl)-furo[2,3-d]pyrimidine [Example 204]	–	++ (++ = pIC50 of 6.0–7.0)	++ (++ = pIC50 of 6.0–7.0)	–	–	–	+ (+ = pIC50 of 5.0–6.0)	–
4-Amino-3-(4-methoxyphenyl)-2-(3-(N-(4-pyridyl)carbamoyl)-phenyl)furo[2,3-d]pyrimidine [Example 108]	–	++ (++ = pIC50 of 6.0–7.0)	++ (++ = pIC50 of 6.0–7.0)	–	–	–	+ (+ = pIC50 of 5.0–6.0)	–
4-Amino-3-(4-methoxyphenyl)-2-(3-sulfamoylphenyl)furo[2,3-d]pyrimidine [Example 165]	+++ (+++ = pIC50 of >7.0)	++ (++ = pIC50 of 6.0–7.0)	++ (++ = pIC50 of 6.0–7.0)	–	–	–	+ (+ = pIC50 of 5.0–6.0)	–
Nc1ncnc2occ(-c3ccc(NC(=O)Nc4cc(C(F)(F)F)ccc4F)cc3)c12 [232 (8C), 4-Amino-3-(4-((2-fluoro-5-(trifluoromethyl)phenyl)-aminocarbonylamino)phenyl)furo[2,3-d]pyrimidine]	–	–	–	< 100	< 100	< 100	–	< 100
COc1ccc(-c2oc3ncnc(N)c3c2-c2ccc(NC(=O)Nc3cc(C(F)(F)F)ccc3F)cc2)cc1 [Example 4]	–	–	–	< 100	< 100	< 100	–	< 100
Nc1ncnc2oc(-c3cccc(S(N)(=O)=O)c3)c(-c3ccc(-c4cccc(F)c4F)cc3)c12 [Example 5]	–	–	–	< 100	100 to 1000	100 to 1000	–	1000 to 10000
N#Cc1cccc(-c2oc3ncnc(N)c3c2-c2ccc(NC(=O)Nc3cc(C(F)(F)F)ccc3F)cc2)c1 [Example 8]	–	–	–	< 100	< 100	< 100	–	< 100
Nc1ncnc2oc(-c3ccoc3)c(-c3ccco3)c12 [Example 15]	++ (++ = pIC50 of 6.0–7.0)	+ (+ = pIC50 of 5.0–6.0)	+ (+ = pIC50 of 5.0–6.0)	–	–	–	+ (+ = pIC50 of 5.0–6.0)	–
Cc1ccc(-c2oc3ncnc(N)c3c2-c2ccc(C)cc2)cc1 [Example 16]	++ (++ = pIC50 of 6.0–7.0)	+ (+ = pIC50 of 5.0–6.0)	+ (+ = pIC50 of 5.0–6.0)	–	–	–	+ (+ = pIC50 of 5.0–6.0)	–
NC(=O)c1cccc(-c2oc3ncnc(N)c3c2-c2ccc(-c3ccccc3)cc2)c1 [Example 131, 4-Amino-3-(4-biphenyl)-2-(3-carbamoylphenyl)furo[2,3-d]pyrimidine]	–	–	–	100 to 1000	100 to 1000	100 to 1000	–	1000 to 10000
CC(=O)Nc1cccc(-c2oc3ncnc(N)c3c2-c2ccc(-c3ccccc3)cc2)c1 [Example 132, 2-(3-Acetamidophenyl)-4-amino-3-(4-biphenyl)furo[2,3-d]pyrimidine]	–	–	–	100 to 1000	1000 to 10000	100 to 1000	–	1000 to 10000

Now from value to molecule, other results behind:

VEGF-E pIC50 (GST-VEGFR2)	TIE2-E pIC50 [2]	TIE2-C pIC50 [3]	IC50 (GST-VEGFR2) [nM]	IC50 [2] [nM]	IC50 [3] [nM]	Molecule	VEGF-C pIC50 [1]	IC50 [1] [nM]
–	–	–	100 to 1000	100 to 1000	100 to 1000	CN(C)CCNC(=O)Nc1cccc(-c2oc3ncnc(N)c3c2-c2ccc(-c3ccccc3)cc2)c1 [Example 159, 4-Amino-3-(4-biphenyl)-2-((3-(2-(dimethylamino)ethyl)-aminocarbonylamino)phenyl)furo-[2,3-d]pyrimidine]	–	100 to 1000
–	–	–	< 100	100 to 1000	100 to 1000	Nc1ncnc2oc(-c3cccc(S(N)(=O)=O)c3)c(-c3ccc(-c4ccccc4)cc3)c12 [Example 166, 4-Amino-3-(4-biphenyl)-2-(3-sulfamoylphenyl)furo[2,3-d]pyrimidine]	–	1000 to 10000
–	–	–	< 100	100 to 1000	100 to 1000	NC(=O)Nc1cccc(-c2oc3ncnc(N)c3c2-c2ccc(-c3ccccc3)cc2)c1 [Example 184, 4-Amino-2-(3-(aminocarbonylamino)phenyl)-3-(4-biphenyl)furo[2,3-d]pyrimidine]	–	1000 to 10000
–	–	–	< 100	100 to 1000	100 to 1000	COc1ccc(-c2oc3ncnc(N)c3c2-c2ccc(-c3ccccc3)cc2)cc1NS(C)(=O)=O [Example 189, 4-Amino-3-(4-biphenyl)-2-(4-methoxy-3-(methylsulfonylamino)phenyl)furo[2,3-d]pyrimidine]	–	1000 to 10000
–	–	–	< 100	100 to 1000	100 to 1000	NC(=O)Nc1ccc(-c2oc3ncnc(N)c3c2-c2ccc(-c3ccccc3)cc2)cc1 [Example 192, 4-Amino-3-(4-biphenyl)-2-(4-(aminocarbonylamino)phenyl)furo[2,3-d]pyrimidine]	–	1000 to 10000
–	–	–	–	100 to 1000	100 to 1000	Nc1ncnc2oc(-c3ccc4[nH]nnc4c3)c(-c3ccc(-c4ccccc4)cc3)c12 [Example 196, 4-Amino-2-(5-benzotriazolyl)-3-(4-biphenyl)furo[2,3-d]pyrimidine]	–	1000 to 10000
–	–	–	–	100 to 1000	100 to 1000	Nc1ncnc2oc(-c3ccc4[nH]cnc4c3)c(-c3ccc(-c4ccccc4)cc3)c12 [Example 198, 4-Amino-2-(5-benzimidazolyl)-3-(4-biphenyl)furo[2,3-d]pyrimidine]	–	1000 to 10000
